Consider six molecules from US20240269139A1, “COMPOUNDS FOR TARGETED PROTEIN DEGRADATION OF KINASES” (DANA-FARBER CANCER INSTITUTE, INC., priority 2020, published 2024).

Each structure is given as a SMILES string. Read-outs that look alike come from different tables or passages of the source.

Experiment [1] has as its target protein kinases (human kinome) (Homo sapiens, UniProt P45983). The experiment is classed as cell-based. To be noted: for logFC MAPK8 (P45983): Experiment wp152.
Experiment [2] is classed as cell-based, H. sapiens. Particulars: MOLT-4, 1 μM, 5 h, 5 μM CB-5083.
Experiment [3] concerns extended human kinome (kinase-like proteins). As to the kind of experiment: Whole cell quantitative proteomics: extended kinome hits. To be noted: Accession Q16875-4; experiment wp117.
Experiment [4] concerns the target protein kinases (human kinome) (Homo sapiens, UniProt Q6JQN1). Format: cell-based. To be noted: ACAD10 (Q6JQN1); experiment wp056.
The target in experiment [5] is T1, protein kinases (human kinome) (Homo sapiens, UniProt Q9H2K8).
T1 sequence (Q9H2K8 1-898): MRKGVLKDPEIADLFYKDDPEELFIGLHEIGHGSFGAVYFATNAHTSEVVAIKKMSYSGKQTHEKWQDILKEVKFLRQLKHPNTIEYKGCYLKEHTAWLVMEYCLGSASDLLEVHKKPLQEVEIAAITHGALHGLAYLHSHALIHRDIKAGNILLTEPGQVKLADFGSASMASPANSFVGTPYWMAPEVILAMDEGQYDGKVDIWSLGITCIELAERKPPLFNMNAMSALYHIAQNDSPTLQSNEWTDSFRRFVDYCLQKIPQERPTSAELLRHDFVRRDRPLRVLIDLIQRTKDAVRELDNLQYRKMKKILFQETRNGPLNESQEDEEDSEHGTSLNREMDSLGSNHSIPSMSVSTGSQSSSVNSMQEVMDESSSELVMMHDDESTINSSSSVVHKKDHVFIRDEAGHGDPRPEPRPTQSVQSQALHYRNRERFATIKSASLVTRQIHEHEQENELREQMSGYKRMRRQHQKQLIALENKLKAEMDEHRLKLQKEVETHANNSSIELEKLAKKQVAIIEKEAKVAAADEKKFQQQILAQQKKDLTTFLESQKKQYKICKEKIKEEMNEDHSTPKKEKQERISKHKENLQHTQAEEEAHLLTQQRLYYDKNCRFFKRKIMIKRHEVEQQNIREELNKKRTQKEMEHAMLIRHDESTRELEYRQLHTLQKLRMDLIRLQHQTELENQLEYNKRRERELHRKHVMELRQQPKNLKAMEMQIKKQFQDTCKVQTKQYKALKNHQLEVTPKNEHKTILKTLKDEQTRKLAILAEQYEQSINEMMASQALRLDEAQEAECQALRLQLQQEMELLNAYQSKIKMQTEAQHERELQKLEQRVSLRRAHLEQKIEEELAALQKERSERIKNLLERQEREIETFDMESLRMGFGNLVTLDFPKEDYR
The experiment is classed as cell-based. To be noted: for logFC: TAOK3 (Q9H2K8); for logFC TAOK3 (Q9H2K8): direction of change down.

The target in experiment [6] is protein kinases (human kinome) (Homo sapiens, UniProt A2RU49). Format: cell-based. Particulars: protein HYKK (A2RU49); experiment wp117; down.
For experiment [7], the target named is protein kinases (human kinome) (Homo sapiens, UniProt Q9P2K8). The experiment is classed as cell-based. To be noted: experiment wp080.
In experiment [8] the target is protein kinases (human kinome) (Homo sapiens, UniProt Q6P5Z2). The experiment is classed as cell-based.
The target in experiment [9] is protein kinases (human kinome) (Homo sapiens, UniProt P31749). The experiment is classed as cell-based. To be noted: for logFC: AKT1 (P31749).
The target in experiment [10] is protein kinases (human kinome) (Homo sapiens, UniProt O60307). The experiment is classed as cell-based. Particulars: experiment wp107.
For experiment [11], the target named is protein kinases (human kinome) (Homo sapiens, UniProt P54760). The experiment is classed as cell-based. To be noted: experiment wp172.
For experiment [12], the target named is protein kinases (human kinome) (Homo sapiens, UniProt Q15120). Format: cell-based. To be noted: experiment wp160, 1 hr.
Experiment [13] has as its target protein kinases (human kinome) (Homo sapiens, UniProt Q96DU7). Format: cell-based. To be noted: protein ITPKC (Q96DU7); experiment wp133, 4 hr; down.
Experiment [14] concerns the target protein kinases (human kinome) (Homo sapiens, UniProt Q96GD4). Format: cell-based. Particulars: for logFC AURKB: AURKB Q96GD4.
In experiment [15] the target is extended human kinome (kinase-like proteins) (Homo sapiens, UniProt Q9NYY8). As to the kind of experiment: Whole cell quantitative proteomics: extended kinome hits. To be noted: Accession Q9NYY8; experiment wp160; 1 hr.

protein kinases (human kinome) (Homo sapiens, UniProt P45983), sequence (P45983 whole entry): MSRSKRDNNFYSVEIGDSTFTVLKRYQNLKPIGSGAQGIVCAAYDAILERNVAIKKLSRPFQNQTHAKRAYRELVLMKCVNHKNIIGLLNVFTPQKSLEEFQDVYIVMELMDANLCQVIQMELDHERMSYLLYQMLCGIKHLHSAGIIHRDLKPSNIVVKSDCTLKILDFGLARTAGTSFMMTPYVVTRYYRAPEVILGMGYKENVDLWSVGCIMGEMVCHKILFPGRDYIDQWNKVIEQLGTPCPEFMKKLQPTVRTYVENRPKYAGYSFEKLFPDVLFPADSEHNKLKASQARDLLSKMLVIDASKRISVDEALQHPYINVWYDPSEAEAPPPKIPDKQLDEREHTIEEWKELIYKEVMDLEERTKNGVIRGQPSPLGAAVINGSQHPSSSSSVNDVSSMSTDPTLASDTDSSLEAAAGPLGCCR
protein kinases (human kinome) (Homo sapiens, UniProt Q96GD4), sequence (Q96GD4 whole entry): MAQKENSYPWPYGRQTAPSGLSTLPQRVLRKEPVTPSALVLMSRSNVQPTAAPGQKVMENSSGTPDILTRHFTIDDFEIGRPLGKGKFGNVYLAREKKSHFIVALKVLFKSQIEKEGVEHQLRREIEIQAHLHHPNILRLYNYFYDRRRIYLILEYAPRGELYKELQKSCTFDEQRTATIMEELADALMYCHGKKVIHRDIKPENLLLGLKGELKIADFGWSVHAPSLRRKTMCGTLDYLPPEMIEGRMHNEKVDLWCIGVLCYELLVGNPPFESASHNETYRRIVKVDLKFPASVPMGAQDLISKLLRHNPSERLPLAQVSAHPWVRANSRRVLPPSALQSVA
protein kinases (human kinome) (Homo sapiens, UniProt P31749), sequence (P31749 whole entry): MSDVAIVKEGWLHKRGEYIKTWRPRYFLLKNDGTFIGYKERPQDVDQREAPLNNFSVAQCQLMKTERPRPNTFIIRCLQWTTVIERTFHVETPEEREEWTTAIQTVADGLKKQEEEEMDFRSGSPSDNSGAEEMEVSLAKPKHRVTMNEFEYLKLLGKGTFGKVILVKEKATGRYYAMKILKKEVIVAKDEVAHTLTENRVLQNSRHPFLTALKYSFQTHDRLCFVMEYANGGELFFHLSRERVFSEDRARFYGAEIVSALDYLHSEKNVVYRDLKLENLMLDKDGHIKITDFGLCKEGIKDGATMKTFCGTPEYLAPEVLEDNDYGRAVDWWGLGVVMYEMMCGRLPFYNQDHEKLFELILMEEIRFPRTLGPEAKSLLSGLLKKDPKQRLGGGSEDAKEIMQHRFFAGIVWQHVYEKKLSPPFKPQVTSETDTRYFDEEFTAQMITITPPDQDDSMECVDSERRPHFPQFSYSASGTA
protein kinases (human kinome) (Homo sapiens, UniProt O60307), sequence (O60307 whole entry): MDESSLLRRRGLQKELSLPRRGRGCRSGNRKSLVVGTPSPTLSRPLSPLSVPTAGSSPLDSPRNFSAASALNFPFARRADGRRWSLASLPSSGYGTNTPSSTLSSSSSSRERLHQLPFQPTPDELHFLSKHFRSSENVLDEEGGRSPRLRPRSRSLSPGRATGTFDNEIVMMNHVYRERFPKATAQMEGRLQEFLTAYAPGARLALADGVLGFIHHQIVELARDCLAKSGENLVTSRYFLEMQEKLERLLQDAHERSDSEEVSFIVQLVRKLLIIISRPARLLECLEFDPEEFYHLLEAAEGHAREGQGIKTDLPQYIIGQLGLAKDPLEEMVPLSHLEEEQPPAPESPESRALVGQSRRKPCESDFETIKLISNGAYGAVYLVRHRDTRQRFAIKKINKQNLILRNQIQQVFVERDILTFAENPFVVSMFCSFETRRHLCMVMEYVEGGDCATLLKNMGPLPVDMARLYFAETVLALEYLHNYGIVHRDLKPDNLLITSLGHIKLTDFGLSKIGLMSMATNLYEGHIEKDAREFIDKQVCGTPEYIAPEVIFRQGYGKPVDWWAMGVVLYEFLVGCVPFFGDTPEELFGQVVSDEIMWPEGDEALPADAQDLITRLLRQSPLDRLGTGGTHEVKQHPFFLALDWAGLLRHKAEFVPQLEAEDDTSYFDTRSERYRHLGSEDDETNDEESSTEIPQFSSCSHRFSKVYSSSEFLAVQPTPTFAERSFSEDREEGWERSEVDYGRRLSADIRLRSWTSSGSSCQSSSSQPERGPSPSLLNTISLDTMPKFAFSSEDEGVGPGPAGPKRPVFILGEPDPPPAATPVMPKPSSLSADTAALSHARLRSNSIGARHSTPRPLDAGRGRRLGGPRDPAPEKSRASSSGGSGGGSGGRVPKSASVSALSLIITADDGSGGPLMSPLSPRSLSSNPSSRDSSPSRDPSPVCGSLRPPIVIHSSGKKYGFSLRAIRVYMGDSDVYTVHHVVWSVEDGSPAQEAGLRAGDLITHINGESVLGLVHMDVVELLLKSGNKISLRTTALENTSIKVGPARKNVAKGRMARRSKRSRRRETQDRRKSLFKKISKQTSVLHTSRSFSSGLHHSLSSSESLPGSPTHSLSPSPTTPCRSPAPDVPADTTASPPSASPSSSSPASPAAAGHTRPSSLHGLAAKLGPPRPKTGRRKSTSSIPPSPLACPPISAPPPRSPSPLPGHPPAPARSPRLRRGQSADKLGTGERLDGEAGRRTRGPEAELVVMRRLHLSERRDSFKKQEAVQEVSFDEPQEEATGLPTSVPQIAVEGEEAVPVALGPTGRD
protein kinases (human kinome) (Homo sapiens, UniProt Q15120), sequence (Q15120 whole entry): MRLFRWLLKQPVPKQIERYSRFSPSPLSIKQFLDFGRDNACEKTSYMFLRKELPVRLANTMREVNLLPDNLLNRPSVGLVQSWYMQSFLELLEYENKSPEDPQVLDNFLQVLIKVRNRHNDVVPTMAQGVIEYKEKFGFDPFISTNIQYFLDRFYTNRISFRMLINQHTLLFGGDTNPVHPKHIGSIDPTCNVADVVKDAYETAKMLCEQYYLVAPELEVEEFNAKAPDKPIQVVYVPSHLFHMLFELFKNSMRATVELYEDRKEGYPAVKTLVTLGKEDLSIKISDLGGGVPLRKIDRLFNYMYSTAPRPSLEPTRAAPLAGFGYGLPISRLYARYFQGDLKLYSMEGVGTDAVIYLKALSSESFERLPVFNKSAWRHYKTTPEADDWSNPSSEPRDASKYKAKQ
protein kinases (human kinome) (Homo sapiens, UniProt Q9P2K8), sequence (Q9P2K8 whole entry): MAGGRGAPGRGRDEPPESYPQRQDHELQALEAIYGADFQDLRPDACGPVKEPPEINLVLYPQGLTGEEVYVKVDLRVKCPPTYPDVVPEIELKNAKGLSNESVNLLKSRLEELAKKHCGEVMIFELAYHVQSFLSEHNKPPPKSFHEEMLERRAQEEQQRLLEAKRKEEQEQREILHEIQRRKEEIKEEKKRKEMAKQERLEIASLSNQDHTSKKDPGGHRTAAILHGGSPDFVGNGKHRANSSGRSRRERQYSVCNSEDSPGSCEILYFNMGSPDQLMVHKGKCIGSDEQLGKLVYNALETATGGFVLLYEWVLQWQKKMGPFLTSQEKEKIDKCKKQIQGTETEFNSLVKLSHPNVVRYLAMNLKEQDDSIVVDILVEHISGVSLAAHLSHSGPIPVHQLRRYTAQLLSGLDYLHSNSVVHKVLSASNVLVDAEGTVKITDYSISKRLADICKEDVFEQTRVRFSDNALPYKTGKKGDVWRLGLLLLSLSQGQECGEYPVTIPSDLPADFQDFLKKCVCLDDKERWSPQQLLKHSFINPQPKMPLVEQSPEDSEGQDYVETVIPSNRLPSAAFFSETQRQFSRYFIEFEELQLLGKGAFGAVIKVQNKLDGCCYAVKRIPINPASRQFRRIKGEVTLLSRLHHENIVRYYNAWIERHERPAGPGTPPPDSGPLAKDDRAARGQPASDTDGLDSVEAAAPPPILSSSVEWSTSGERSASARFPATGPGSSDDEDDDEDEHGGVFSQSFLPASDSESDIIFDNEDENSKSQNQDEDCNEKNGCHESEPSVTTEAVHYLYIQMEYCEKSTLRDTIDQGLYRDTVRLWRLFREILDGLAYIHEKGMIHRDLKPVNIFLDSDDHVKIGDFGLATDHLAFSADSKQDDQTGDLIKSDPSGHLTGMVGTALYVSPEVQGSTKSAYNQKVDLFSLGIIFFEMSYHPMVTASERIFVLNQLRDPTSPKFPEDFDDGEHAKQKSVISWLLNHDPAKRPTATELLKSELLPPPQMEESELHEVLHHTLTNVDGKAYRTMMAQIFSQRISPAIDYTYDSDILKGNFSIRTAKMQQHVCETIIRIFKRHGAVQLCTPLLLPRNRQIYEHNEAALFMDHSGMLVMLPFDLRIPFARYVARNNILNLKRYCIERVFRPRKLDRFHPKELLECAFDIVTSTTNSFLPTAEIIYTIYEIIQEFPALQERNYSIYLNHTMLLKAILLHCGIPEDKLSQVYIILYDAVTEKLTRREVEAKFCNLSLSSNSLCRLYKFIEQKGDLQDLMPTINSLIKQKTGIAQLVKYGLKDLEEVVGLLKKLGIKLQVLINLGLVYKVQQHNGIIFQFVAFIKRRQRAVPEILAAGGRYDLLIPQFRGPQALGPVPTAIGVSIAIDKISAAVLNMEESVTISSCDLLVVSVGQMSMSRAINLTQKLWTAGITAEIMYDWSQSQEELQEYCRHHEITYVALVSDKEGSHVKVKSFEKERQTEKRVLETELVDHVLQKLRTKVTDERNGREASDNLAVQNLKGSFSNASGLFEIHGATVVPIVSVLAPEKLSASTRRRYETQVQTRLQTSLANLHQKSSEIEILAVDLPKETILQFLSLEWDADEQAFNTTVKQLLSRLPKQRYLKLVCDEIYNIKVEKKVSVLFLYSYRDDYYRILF
protein kinases (human kinome) (Homo sapiens, UniProt A2RU49), sequence (A2RU49 whole entry): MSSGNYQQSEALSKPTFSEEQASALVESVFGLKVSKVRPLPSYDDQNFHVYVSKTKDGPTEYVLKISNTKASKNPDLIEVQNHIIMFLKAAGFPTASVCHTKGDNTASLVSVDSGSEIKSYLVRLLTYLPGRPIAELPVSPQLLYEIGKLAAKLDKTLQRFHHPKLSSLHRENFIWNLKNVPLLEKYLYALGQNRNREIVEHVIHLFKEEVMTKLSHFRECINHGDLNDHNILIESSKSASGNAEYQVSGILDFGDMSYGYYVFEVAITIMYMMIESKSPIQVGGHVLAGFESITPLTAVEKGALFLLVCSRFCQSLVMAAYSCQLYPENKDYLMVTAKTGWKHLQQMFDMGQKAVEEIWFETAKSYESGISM

As to `Cc1ccc(NC(=O)c2cccc(C(F)(F)F)c2)cc1N1Cc2cnc(Nc3ccc(N4CCN(Cc5cn(CCCCCOc6cccc7c6C(=O)N(C6CCC(=O)NC6=O)C7=O)nn5)CC4)nc3)nc2N(C)C1=O` (centres unmarked) [DB0646, N-(3-(7-((6-(4-((1-(5-((2-(2,6-Dioxopiperidin-3-yl)-1,3-dioxoisoindolin-4-yl)oxy)pentyl)-1H-1,2,3-triazol-4-yl)methyl)piperazin-1-v)pyridin-3-yl)amino)-1-methyl-2-oxo-1,4-dihydropyrimido[4,5-d]pyrimidin-3(2H)-yl)-4-methylphenyl)-3-(trifluoromethyl)benzamide], the “logFC MAPK8 (P45983)” value in experiment [1] (direction down) and in experiment [1] (direction of change down) was −0.8433 each time. Also, the “logFC MAPK8 (P45983-1)” value in [1] (Experiment wp172, direction down) was −0.376; in [1] (experiment wp172, direction of change down), −0.376. Also, the “CSK degradation rescue on p97 inhibition” value in experiment [2] was “very little degradation rescue”. Moreover, in experiment [3], the “logFC PFKFB3” value is listed as −0.377.
`Cc1ccc(C(=O)Nc2ccc(CN3CCN(CCCOCCOCCOCCNC(=O)COc4cccc5c4C(=O)N(C4CCC(=O)NC4=O)C5=O)CC3)c(C(F)(F)F)c2)cc1C#Cc1cnc2cccnn12` (centres unmarked) [SB1.G.187]: the logFC in [4] was −0.3838; in experiment [5] (experiment wp103) it was −0.3727; in experiment [5] (experiment wp107), −0.3858. Further, the “logFC TAOK3 (Q9H2K8)” value in experiment [5] (experiment wp103) is −0.3727; in experiment [5] (experiment wp107), −0.3858.
With `Cc1ncsc1-c1ccc([C@H](C)NC(=O)[C@@H]2C[C@@H](O)CN2C(=O)[C@@H](NC(=O)CCCCCN2CCN(c3ccc(Nc4ncc5scc(-c6cccc(NS(C)(=O)=O)c6)c5n4)cc3)CC2)C(C)(C)C)cc1` [RSS0680, (2S,4R)-1-((S)-3,3-Dimethyl-2-(6-(4-(4-((7-(3-(methylsulfonamido)phenyl)thieno[3,2-d]pyrimidin-2-yl)amino)phenyl)piperazin-1-yl)hexanamido)butanoyl)-4-hydroxy-N—((S)-1-(4-(4-methylthiazol-5yl)phenyl)ethyl)pyrrolidine-2-carboxamide], the “logFC HYKK” value in experiment [6] is listed as −0.3476. The “logFC EIF2AK4 (Q9P2K8-1)” value in [7] (direction of change down) is −0.3311. Also, the “logFC EIF2AK4” value in [7] (protein EIF2AK4 (Q9P2K8-1), down) was −0.3311.
Take `Cc1ncsc1-c1ccc([C@H](C)NC(=O)[C@@H]2C[C@@H](O)CN2C(=O)[C@@H](NC(=O)CCOCCOCCN2CCN(c3ccc(Nc4ncc(Cl)c(Nc5ccccc5S(=O)(=O)C(C)C)n4)cc3)CC2)C(C)(C)C)cc1` [FMF.06.098.1]: the “logFC PKN3 (Q6P5Z2)” value in experiment [8] (Experiment wp114, direction of change down) was −0.451. In addition, the “logFC PKN3” value in experiment [8] (protein PKN3 (Q6P5Z2), experiment wp114, down) is −0.451.
On to `C[C@@H]1C[C@@H](O)c2ncnc(N3CCN(C(=O)[C@H](CNCCCCCCCCCCc4cccc5c4C(=O)N(C4CCC(=O)NC4=O)C5=O)c4ccc(Cl)cc4)CC3)c21` (some centres unmarked) [INY.03.041.01], for which the logFC in [9] (experiment wp118) is −2.258; in [9] (experiment wp135, 4 hr), −1.225. The “logFC of AKT1 (P31749)” value in [9] (Experiment wp135, 4 hr) was −1.225; in [9] (experiment wp118), −2.258.
As for `CC(C)S(=O)(=O)c1ccccc1Nc1nc(Nc2ccc(N3CCN(CCOCCNC(=O)CNc4cccc5c4C(=O)N(C4CCC(=O)NC4=O)C5=O)CC3)cc2)ncc1Cl` (centres unmarked) [SK.3.91], in experiment [10] (direction of change down), the “logFC MAST3 (O60307)” value is given as −0.4984. Besides, in experiment [10] (protein MAST3 (O60307), down), the “logFC MAST3” value is −0.4984. Besides, the “logFC EPHB4 (P54760)” value in experiment [11] (direction of change down) is given as −0.5059. Moreover, the “logFC EPHB4” value in [11] (protein EPHB4 (P54760), down) is on record as −0.5059. Further, in experiment [12], the “logFC PDK3 (Q15120-1)” value is −0.9801 and the “logFC of PDK3 (Q15120-1)” value is listed as −0.9801. Also, the “logFC ITPKC” value in [13] was −0.3556. In addition, in [14] (experiment wp160, 4 hr), the “logFC AURKB” value is on record as −0.4984 and the “logFC of AURKB (Q96GD4)” value was −0.4984. Also, in experiment [14] (experiment wp172), the “logFC AURKB” value was −1.11. In [14] (Experiment wp172), the “logFC of AURKB (Q96GD4)” value is −1.11. For the same molecule, the “logFC FASTKD2” value in experiment [15] is given as −1.
